From ChEMBL document CHEMBL5634123, “Design and synthesis of 1H-benzo[d]imidazole selective HDAC6 inhibitors with potential therapy for multiple myeloma” (Eur J Med Chem, 2023)

What was measured:
[1] = biological target: T1, Protein deacetylase HDAC6 (Homo sapiens, UniProt Q9UBN7); assay: Inhibition of HDAC6 (unknown origin) preincubated for 10 mins followed by substrate addition measured for 1 hr by fluorescence based assay
T1 sequence (Q9UBN7 whole entry): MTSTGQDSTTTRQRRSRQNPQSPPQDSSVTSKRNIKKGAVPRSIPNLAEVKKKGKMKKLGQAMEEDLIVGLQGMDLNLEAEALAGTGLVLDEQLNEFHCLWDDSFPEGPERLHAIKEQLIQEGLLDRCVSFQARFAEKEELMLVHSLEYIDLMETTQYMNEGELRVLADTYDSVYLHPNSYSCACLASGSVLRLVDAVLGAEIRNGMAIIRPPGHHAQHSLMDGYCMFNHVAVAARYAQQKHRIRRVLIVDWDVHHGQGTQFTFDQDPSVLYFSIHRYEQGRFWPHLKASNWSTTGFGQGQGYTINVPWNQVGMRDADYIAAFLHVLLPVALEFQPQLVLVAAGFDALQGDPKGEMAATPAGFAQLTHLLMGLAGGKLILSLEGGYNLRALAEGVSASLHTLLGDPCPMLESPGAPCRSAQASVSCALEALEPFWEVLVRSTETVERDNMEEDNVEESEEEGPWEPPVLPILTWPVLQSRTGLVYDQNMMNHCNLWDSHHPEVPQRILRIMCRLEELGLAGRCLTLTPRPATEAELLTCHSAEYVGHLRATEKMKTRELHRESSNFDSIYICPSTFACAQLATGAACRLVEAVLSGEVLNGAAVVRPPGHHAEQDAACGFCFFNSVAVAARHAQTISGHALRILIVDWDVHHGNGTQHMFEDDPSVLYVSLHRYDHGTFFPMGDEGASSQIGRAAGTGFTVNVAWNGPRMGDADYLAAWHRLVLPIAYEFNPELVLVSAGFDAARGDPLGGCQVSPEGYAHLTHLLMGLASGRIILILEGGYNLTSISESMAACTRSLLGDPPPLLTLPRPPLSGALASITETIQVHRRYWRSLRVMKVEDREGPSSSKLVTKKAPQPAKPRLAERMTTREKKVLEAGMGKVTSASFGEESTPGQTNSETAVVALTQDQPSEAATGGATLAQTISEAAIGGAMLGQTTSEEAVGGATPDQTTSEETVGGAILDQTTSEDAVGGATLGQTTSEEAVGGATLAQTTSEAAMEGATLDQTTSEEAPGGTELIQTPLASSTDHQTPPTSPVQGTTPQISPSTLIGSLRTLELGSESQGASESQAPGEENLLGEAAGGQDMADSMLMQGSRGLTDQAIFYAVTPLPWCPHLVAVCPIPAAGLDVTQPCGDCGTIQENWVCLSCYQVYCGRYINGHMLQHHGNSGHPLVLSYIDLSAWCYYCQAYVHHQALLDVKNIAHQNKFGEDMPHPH

Histone deacetylase 1 = Histone deacetylase 1 (Homo sapiens, UniProt Q13547); assay: Inhibition of HDAC1 (unknown origin) preincubated for 10 mins followed by substrate addition measured for 1 hr by fluorescence based assay
HCT-116 = assay: Cytotoxicity against human HCT-116 cells assessed as inhibition of cell viability incubated for 24 hrs by CCK8 assay; format: functional, cell-based; settings: HCT-116, 24 h
HCCLM3 = assay: Cytotoxicity against human HCCLM3 cells assessed as inhibition of cell viability incubated for 24 hrs by CCK8 assay; format: functional, cell-based; settings: HCCLM3, 24 h
SGC-7901 = assay: Cytotoxicity against human SGC-7901 cells assessed as inhibition of cell viability incubated for 24 hrs by CCK8 assay; format: functional, cell-based; settings: SGC-7901, 24 h
RPMI-8226 [2] = assay: cells; settings: Homo sapiens, RPMI-8226, 24 h
MDA-MB-468 = assay: cells; settings: Homo sapiens, MDA-MB-468, 24 h
[3] = biological target: T2, Protein deacetylase HDAC6 (Homo sapiens) (UniProt Q9UBN7); assay: Inhibition of HDAC6 (unknown origin) at 1 uM preincubated for 10 mins followed by substrate addition measured for 1 hr by fluorescence based assay relative to control; settings: time 70.0 min
T2 sequence (whole entry): T1 sequence (Q9UBN7 whole entry)

RPMI-8226 [4] = assay: Induction of cell cycle arrest at G1 phase in human RPMI-8226 cells at 2.5 uM incubated for 24 hrs by PI staining based flow cytometry (reference value: 19.2 %); format: functional
RPMI-8226 [5] = assay: Induction of cell cycle arrest at S phase in human RPMI-8226 cells at 2.5 uM incubated for 24 hrs by PI staining based flow cytometry (reference value: 58.5 %); format: functional
RPMI-8226 [6] = assay: Induction of cell cycle arrest at G2 phase in human RPMI-8226 cells at 2.5 uM incubated for 24 hrs by PI staining based flow cytometry (reference value: 18.3 %); format: functional
RPMI-8226 [7] = assay: Induction of apoptosis in human RPMI-8226 cells assessed as viable cells at 2.5 uM incubated for 24 hrs by Annexin V-FITC/PI staining based flow cytometry (reference value: 90.98 %); format: functional; settings: read-out: Activity
RPMI-8226 [8] = assay: Induction of apoptosis in human RPMI-8226 cells assessed as early apoptotic cells at 2.5 uM incubated for 24 hrs by Annexin V-FITC/PI staining based flow cytometry (reference value: 5.34 %); format: functional
RPMI-8226 [9] = assay: Induction of apoptosis in human RPMI-8226 cells assessed as late apoptotic cells at 2.5 uM incubated for 24 hrs by Annexin V-FITC/PI staining based flow cytometry (reference value: 2.78 %); format: functional
RPMI-8226 [10] = assay: Induction of apoptosis in human RPMI-8226 cells assessed as necrotic cells at 2.5 uM incubated for 24 hrs by Annexin V-FITC/PI staining based flow cytometry (reference value: 0.90 %); format: functional
[11] = Clearance in mouse at 1 mg/kg, iv; format: ADME, organism-based; settings: in vivo
[12] = Volume of distribution at steady state in mouse at 1 mg/kg, iv; format: ADME, organism-based; settings: in vivo, read-out: Vdss
[13] = AUC (0 to t) in mouse at 1 mg/kg, iv; format: ADME, organism-based; settings: in vivo
[14] = Half life in mouse at 1 mg/kg, iv; format: ADME, organism-based; settings: in vivo
[15] = Cmax in mouse at 10 mg/kg, po; format: ADME, organism-based; settings: in vivo
[16] = Tmax in mouse at 10 mg/kg, po; format: ADME, organism-based; settings: in vivo
[17] = Oral bioavailability in mouse at 10 mg/kg; format: ADME, organism-based; settings: in vivo
RPMI-8226 [18] = assay: Antitumor activity against human RPMI-8226 cells xenografted in Balb/c nude mouse assessed as ratio of tumor to control at 40 mg/kg, po qd for 21 days administered consecutively relative to control; format: functional; settings: time 21 day
[19] = Toxicity in Balb/c nude mouse xenografted with human RPMI-8226 cells assessed as body weight loss at 40 mg/kg, po qd for 21 days administered consecutively; format: organism-based; settings: in vivo, 504 h, time 21 day

Chain of Histone deacetylase 1 (Q13547 whole entry): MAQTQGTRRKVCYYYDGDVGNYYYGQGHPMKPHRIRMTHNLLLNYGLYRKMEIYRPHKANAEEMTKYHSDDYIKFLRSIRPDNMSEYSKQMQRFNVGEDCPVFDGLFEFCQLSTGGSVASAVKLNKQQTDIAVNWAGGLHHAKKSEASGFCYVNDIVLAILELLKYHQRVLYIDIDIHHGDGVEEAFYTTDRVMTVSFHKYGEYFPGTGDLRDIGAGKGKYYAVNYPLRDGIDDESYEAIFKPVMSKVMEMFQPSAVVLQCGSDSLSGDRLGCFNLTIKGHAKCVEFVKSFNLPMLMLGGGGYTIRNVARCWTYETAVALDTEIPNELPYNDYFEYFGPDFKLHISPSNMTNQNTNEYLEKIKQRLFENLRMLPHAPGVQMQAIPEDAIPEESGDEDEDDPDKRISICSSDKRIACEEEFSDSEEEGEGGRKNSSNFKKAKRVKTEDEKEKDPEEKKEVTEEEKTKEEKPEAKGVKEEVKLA

IC50 [1]	IC50 (RPMI-8226 [2])	IC50 (MDA-MB-468)	Structure (SMILES)	IC50 (HCT-116)	IC50 (HCCLM3)	IC50 (SGC-7901)	further results
7.58 nM	2040 nM	44000 nM	Cn1c([C@H](Cc2ccccc2)NCc2ccccc2)nc2cc(C(=O)NO)ccc21	5520 nM	> 50000 nM	40800 nM	
69.2 nM			O=C(NO)c1ccc2nc(CCc3ccccc3)[nH]c2c1				
15.8 nM	2060 nM	9600 nM	Cn1c(CNc2ccccc2)nc2cc(C(=O)NO)ccc21	17200 nM	41500 nM	> 50000 nM	
853 nM			CCn1c(CNc2ccccc2)nc2cc(C(=O)NO)ccc21				
4350 nM			O=C(NO)c1ccc2nc[nH]c2c1				IC50 (Histone deacetylase 1): > 10000 nM
12.6 nM	2520 nM	7960 nM	Cn1c(COc2ccccc2)nc2cc(C(=O)NO)ccc21	2260 nM	8720 nM	9810 nM	
898 nM			O=C(NO)c1ccc2c(c1)nc(CNc1ccccc1)n2C1CC1				
14.4 nM	349 nM	10800 nM	Cn1c(CNCc2ccccc2)nc2cc(C(=O)NO)ccc21	1330 nM	2620 nM	5100 nM	IC50 (Histone deacetylase 1): 976 nM
1510 nM			CC(C)n1c(CNc2ccccc2)nc2cc(C(=O)NO)ccc21				
9.55 nM	934 nM	8170 nM	CCCCN(Cc1nc2cc(C(=O)NO)ccc2n1C)c1ccccc1	3120 nM	3490 nM	2830 nM	IC50 (Histone deacetylase 1): 634 nM
9.22 nM	1050 nM	9160 nM	C[C@H](NCc1ccccc1)c1nc2cc(C(=O)NO)ccc2n1C	6420 nM	2420 nM	2400 nM	
28.1 nM			Cn1c(CSc2ccccc2)nc2cc(C(=O)NO)ccc21				
13.8 nM	2470 nM	8580 nM	Cn1c(CNc2ccccc2F)nc2cc(C(=O)NO)ccc21	> 50000 nM	14400 nM	5810 nM	

Further lines, the compound ahead of its results:

Structure (SMILES)	IC50 [1]	IC50 (RPMI-8226 [2])	IC50 (MDA-MB-468)	IC50 (HCT-116)	IC50 (HCCLM3)	IC50 (SGC-7901)	further results
C[C@@H](NCc1ccccc1)c1nc2cc(C(=O)NO)ccc2n1C	5.83 nM	709 nM	6010 nM	508 nM	1450 nM	1650 nM	IC50 (Histone deacetylase 1): 841 nM
Cn1c(CN2CCCCC2)nc2cc(C(=O)NO)ccc21	34.2 nM						
Cc1ccccc1NCc1nc2cc(C(=O)NO)ccc2n1C	15.8 nM	2190 nM	5530 nM	6300 nM	15000 nM	10800 nM	
Cn1c(CNc2ccc(F)cc2)nc2cc(C(=O)NO)ccc21	18.4 nM						
Cn1c(CN2CCC3(CC2)OCCO3)nc2cc(C(=O)NO)ccc21	36.4 nM						
Cc1ccc(NCc2nc3cc(C(=O)NO)ccc3n2C)cc1	19.4 nM						
Cn1c(CNc2cccc(F)c2)nc2cc(C(=O)NO)ccc21	6.78 nM	1870 nM	3760 nM	1430 nM	5180 nM	13600 nM	
O=C(NO)c1ccc2ncn(CCc3ccccc3)c2c1							inhibition [3]: 23.4%
O=C(CCCCCCNC(=O)c1cnc(N(c2ccccc2)c2ccccc2)nc1)NO [RICOLINOSTAT]							Activity (RPMI-8226 [4]): 28.1%; Activity (RPMI-8226 [5]): 40.8%; Activity (RPMI-8226 [6]): 24.5%; viability at 2.5 µM (RPMI-8226 [7]): 75.3%; Activity (RPMI-8226 [8]): 19.84%; Activity (RPMI-8226 [9]): 4.33%; Activity (RPMI-8226 [10]): 0.56%; clearance [11]: 29.4 mL/min/kg; Vd [12]: 0.525 L/kg; AUC(0-t) [13]: 566 ng·h/mL; half-life [14]: 22.3 min; Cmax [15]: 333 ng/mL; Tmax [16]: 15 min; bioavailability [17]: 6%; T/C (RPMI-8226 [18]): 39.9%; Activity [19]: Non-Toxic
CN(Cc1nc2cc(C(=O)NO)ccc2n1C)c1ccccc1	8.91 nM	661 nM	4930 nM	9950 nM	6690 nM	3690 nM	IC50 (Histone deacetylase 1): 567 nM
CCCN(Cc1nc2cc(C(=O)NO)ccc2n1C)c1ccccc1	12.8 nM	2390 nM	> 50000 nM	2060 nM	4800 nM	8690 nM	
Cc1cccc(NCc2nc3cc(C(=O)NO)ccc3n2C)c1	11.8 nM	1620 nM	> 50000 nM	16000 nM	> 50000 nM	27900 nM	
CCCCN(Cc1nc2cc(C(=O)NO)ccc2n1C)c1cccc(F)c1	12.8 nM	1330 nM	10500 nM	3580 nM	4430 nM	6530 nM	
CCN(Cc1nc2cc(C(=O)NO)ccc2n1C)c1ccccc1	10.3 nM	1380 nM	> 50000 nM	500 nM	4510 nM	4200 nM	
O=C(NO)c1ccc2c(c1)ncn2CCc1ccccc1							inhibition [3]: 70.3%
Cn1c(CNc2ccccc2)nc2ccc(C(=O)NO)cc21							inhibition [3]: 64.1%
Cn1c(CNc2cccc3ccccc23)nc2cc(C(=O)NO)ccc21	5.87 nM	320 nM	6730 nM	9360 nM	781 nM	518 nM	IC50 (Histone deacetylase 1): 834 nM
